Experimental data reported in US20080045567A1, “Therapeutic Agent for Hyperlipemia and Therapeutic Agent for Diabetes” (Kowa Co., Ltd, priority 2004, published 2008).

How the values were obtained:
blood triglycerides [1] = test: Lowering of blood triglycerides by combined administration of sodium salt of compound A and calcium salt of atorvastatin in rats (Example 2); format: in vivo, male Wistar strain rats; conditions: rat; for blood triglycerides in comparison with the control group (in words): orally 14 days, Dunnett's test; for Reduction rate of blood triglycerides (%): blood collected after 18 h fast, vs control group
Description: Six-week-old male Wistar strain rats (Nippon Ikagaku Jikken Doubutsu Kabushiki Kaisha) were used for the test. Throughout the experimental period, the rats were fed in a rearing room maintained at a light-dark cycle (light period lit by room lamp: 7 am to 7 pm), a temperature of 23±3 degrees C., and a humidity of 55±15%, and were allowed free access to solid feed (CE-2: CLEA Japan, Inc.) and tap water.
Calcium salt of pitavastatin and sodium salt of the compound A were suspended in an aqueous solution of 0.5% by mass of sodium carboxymethylcellulose (Iwai Chemicals Co., Ltd.) and prepared so that the dose amount became 2 mL/kg. Since calcium salt of pitavastatin contained 9.43% by mass of water, 1.1-fold by mass of the dose amount was weighed to correct. The suspension was refrigerated (4 degrees C.) and kept in a light-resistant bottle, and its preparation was carried out every 7 days.
Thirty-two rats were divided into four groups (eight rats per each group) so that blood total cholesterol and blood triglycerides are averaged. That is, the four groups consisted of a control group, a group of calcium salt of pitavastatin alone (10 mg/kg), a group of sodium salt of the compound A alone (1 mg/kg), and a group of a combination of calcium salt of pitavastatin (10 mg/kg) and sodium salt of the compound A (1 mg/kg). The drugs were orally administered once a day (at 4 pm) for 14 days repeatedly, and the control group received orally the aqueous solution of 0.5% by mass of sodium carboxymethylcellulose at 2 mL/kg. All the groups were fasted for 18 hours after the final administration. Then, blood was collected and blood triglycerides were determined.
The effect of lowering blood triglycerides by combined administration of sodium salt of the compound A and calcium salt of atorvastatin was determined as in Example 1.

blood triglycerides [2] = test: Lowering of blood triglycerides by combined administration of sodium salt of compound A and calcium salt of pitavastatin in rats (Example 1); format: in vivo, male Wistar strain rats; conditions: rat; for blood triglycerides in comparison with the control group (in words): orally 14 days, Dunnett's test; for Reduction rate of blood triglycerides (%): blood collected after 18 h fast, vs control group
Method: The effect of lowering blood triglycerides by combined administration of sodium salt of the compound A and calcium salt of pitavastatin was determined by the following method. Six-week-old male Wistar strain rats (Nippon Ikagaku Jikken Doubutsu Kabushiki Kaisha) were used for the test. Throughout the experimental period, the rats were fed in a rearing room maintained at a light-dark cycle (light period lit by room lamp: 7 am to 7 pm), a temperature of 23±3 degrees C., and a humidity of 55±15%, and were allowed free access to solid feed (CE-2: CLEA Japan, Inc.) and tap water. Calcium salt of pitavastatin and sodium salt of the compound A were suspended in an aqueous solution of 0.5% by mass of sodium carboxymethylcellulose (Iwai Chemicals Co., Ltd.) and prepared so that the dose amount became 2 mL/kg. Since calcium salt of pitavastatin contained 9.43% by mass of water, 1.1-fold by mass of the dose amount was weighed to correct. The suspension was refrigerated (4 degrees C.) and kept in a light-resistant bottle, and its preparation was carried out every 7 days. Thirty-two rats were divided into four groups (eight rats per each group) so that blood total cholesterol and blood triglycerides are averaged. That is, the four groups consisted of a control group, a group of calcium salt of pitavastatin alone (10 mg/kg), a group of sodium salt of the compound A alone (1 mg/kg), and a group of a combination of calcium salt of pitavastatin (10 mg/kg) and sodium salt of the compound A (1 mg/kg). The drugs were orally administered once a day (at 4 pm) for 14 days repeatedly, and the control group received orally the aqueous solution of 0.5% by mass of sodium carboxymethylcellulose at 2 mL/kg. All the groups were fasted for 18 hours after the final administration. Then, blood was collected and blood triglycerides were determined. Multigroup comparison between the control group and drug-administered group was performed with Dunnett's multiple comparison test after Bartlett's test for analysis of variance, and a significance level lower than 5% was considered to indicate significant difference.

[3] = 1 mg/kg orally once a day for 14 days

CC(C)c1c(C(=O)Nc2ccccc2)c(-c2ccccc2)c(-c2ccc(F)cc2)n1CC[C@@H](O)C[C@@H](O)CC(=O)O [Atorvastatin Ca, atorvastatin]
blood triglycerides in comparison with the control group (in words) (blood triglycerides [1]; 50 mg/kg alone): a tendency to be lowered | Reduction rate of blood triglycerides (%) (blood triglycerides [1]; 50 mg/kg orally once a day for 14 days): 7%

O=C(O)C(Cl)(Cl)CCCCCCCCCCc1ccc(Cl)cc1 [Compound A Na, 12-(4-chlorophenyl)-2,2-dichlorododecanoic acid]
blood triglycerides in comparison with the control group (in words) (blood triglycerides [2]; 1 mg/kg alone, p<0.05): a significant reduction | Reduction rate of blood triglycerides (%) (blood triglycerides [2]; [3]): 25% | blood triglycerides in comparison with the control group (in words) (blood triglycerides [1]; 1 mg/kg alone, p<0.05): a significant reduction | Reduction rate of blood triglycerides (%) (blood triglycerides [1]; [3]): 25%

O=C(O)C[C@H](O)C[C@H](O)/C=C/c1c(C2CC2)nc2ccccc2c1-c1ccc(F)cc1 [Pitavastatin Ca, (3R,5S,6E)-7-[2-cyclopropyl-4-(4-fluorophenyl)-3-quinolyl]-3,5-dihydroxy-6-heptenoic acid]
blood triglycerides in comparison with the control group (in words) (blood triglycerides [2]; 10 mg/kg alone): a tendency to be lowered | Reduction rate of blood triglycerides (%) (blood triglycerides [2]; 10 mg/kg orally once a day for 14 days): 20%
